Assay results as given in patent US20190328721A1, “METHOD OF ACTIVATING DENDRITIC CELLS” (KOREA INSTITUTE OF SCIENCE AND TECHNOLOGY, priority 2018, published 2019).

Assays:
[1] = test system: dendritic cells; assay: Flow cytometry of dendritic cells from B16F10-Ova-bearing mice (maturation, subsets, cross presentation); assay type: in vivo
Procedure: To confirm the effect of the ROCK inhibitor Y27632 on the maturation process of dendritic cells, the inventors administered Y27362 to B16F10-Ova-bearing cancer model animals according to the same administration schedule as in Example 2-1, and the expression of CD40 and CD86, which are dendritic cell maturation markers, was analyzed by flow cytometry.
Recently, it has been shown that CD103 (corresponding to CD141 in humans)-positive dendritic cells (CD103 DC) play an important role in cancer cell phagocytosis and T cell anticancer immunity among dendritic cells (Broz et al., Cancer Cell, 26 (5): 638-652, 2014). Therefore, in order to analyze the effect of the ROCK inhibitor on CD103 DC, Y27632 was administered to B16F10-Ova-bearing cancer model mice according to the administration schedule described in the above Example 2-1, tumor tissues and tumor-draining lymph nodes were excised, and then flow cytometry analysis was performed using antibodies specifically binding to dendritic cell markers (CD11b, CD103 and CD8). It was confirmed that the ratio of CD103 DC was increased by Y27632 in both the tumor-draining lymph nodes (FIG. 15A) and the tumor tissues (FIG. 15B). On the other hand, in the case of CD11b-positive and CD8-positive dendritic cells, no change due to administration of Y27632 was observed.
The present inventors analyzed cross presentation activity which is one of functions of dendritic cells via flow cytometry analysis using an antibody capable of detecting a cancer antigen (H-2K^b-Ova) capable of activating T cells, through flow cytometry analysis using an antibody (H-2K^b monoclonal antibody, Invitrogen, USA). It was confirmed that the cross presentation of CD103 DC was increased by Y27632 in both tumor-draining lymph nodes (FIG. 15C) and tumor tissues (FIG. 15D).
Further, the present inventors analyzed CD40, which is one of the markers of dendritic cell function capable of activating T cells and a DC maturation marker of dendritic cells, by flow cytometry analysis using anti-CD40 antibodies. As shown in FIGS. 15E and 15F, it was confirmed that the maturation of CD103 DC was increased by Y27632 in the tumor-draining lymph nodes.
The present inventors analyzed a series of immunological induction processes occurring after the phagocytosis against cancer cells or cancer-specific antigens in order to analyze the mechanism of the combination therapy for the anti-cancer immune response. Specifically, in order to confirm the effect of the combination therapy on the dendritic cell maturation, Y27632 and doxorubicin were administered to B16F10-Ova-bearing cancer model mice as described above, and then tumor-draining lymph nodes were isolated and the expression of CD40 and CD86, which are dendritic cell maturation markers, was analyzed by flow cytometry analysis.
Further, in order to confirm the effect of the combined treatment on the cross presentation process to the dendritic cells, the present inventors administered Y27632 and doxorubicin to B16F10-Ova-bearing cancer model mice as described above, isolated the tumor-draining lymph nodes, and then cross presentation activity, which is one of functions of dendritic cells, was analyzed via flow cytometry analysis using an antibody capable of detect a cancer antigen (H-2K^b-Ova) capable of activating T cells, through flow cytometry analysis using an antibody (H-2K^b monoclonal antibody, Invitrogen, USA).
The present inventors then investigated the effect of the combination of the drugs on the maturation process of dendritic cells. Specifically, the tumor-draining lymph nodes were isolated after administration of Y27632 and/or cisplatin in the B16F10-Ova-bearing cancer model, and the expression level of CD40 and CD86, the dendritic cell maturation markers, was analyzed by flow cytometry. As shown in FIG. 19C and 19D, there was no influence on the maturation of dendritic cells when Y27632 alone, cisplatin alone, or the combination of the two were administered (FIGS. 19C and 19D). […]

[2] = test system: bone marrow-derived dendritic cells (BMDC); assay: Cross presentation of H-2Kb-Ova by BMDCs in vitro; assay type: cell-based, mice; details: Y27632 30 μM, 1 hour on BMDCs; cancer cells doxorubicin treated or untreated
Procedure: Furthermore, the inventors investigated whether the cross presentation of dendritic cells was promoted by the combination treatment of doxorubicin and Y27632. To this end, the present inventors used 30 μM of Y27632 to pretreat bone marrow-derived dendritic cells (BMDC) stained with CellTracker CMFDA (Thermo Fisher Scientific, USA) for 1 hour, followed by treatment with doxorubicin treated B16F10-Ova cells or doxorubicin untreated B16F10-Ova cells. After the co-culture, floating cancer cells were removed by withdrawing supernatant. Cross presentation activity, which is one of functions of dendritic cells, was analyzed via flow cytometry analysis using an antibody capable of detect a cancer antigen (H-2K^b-Ova) capable of activating T cells, through flow cytometry analysis using an antibody (H-2K^b monoclonal antibody, Invitrogen, USA).

[3] = test system: CT26.CL25 cancer cells; assay: CT26.CL25 tumor model; assay type: in vivo, Balb/c wild type mice; details: 10 mg/kg intravenous
Procedure: CT26.CL25 cancer cells (1×10^6) expressing β-galactosidase were subcutaneously injected into the left back of a Balb/c wild type mice to generate a tumor model Similarly, an […] tumor model was prepared by subcutaneously injecting melanoma cell line B16F10-Ova cells (5×10^5) into the left back of C57L/B6 wild-type mice to induce cancer.
In the case of the CT26.CL25 cancer cell line, 6 days after the injection of the cancer cells, and in the case of B 16F10-Ova, 9 days after the injection of the cancer cells, Y27632 was administered by intravenous injection at a dose of 10 mg/kg as indicated in FIG. 8a. In the case of the CT26.CL25 model, the mice were sacrificed on the 22nd day after the injection of the cancer cells and in the case of the B16F10-Ova cancer model, the mice were sacrificed on the 20th day after the injection of the cancer cells (FIG. 8A). As a negative control, phosphate-buffered saline was administered instead of Y27632.
The tumor tissues of the mice were excised, an ex vivo image was taken and the tumor tissue were weighed (FIG. 8B). In addition, before the mice were sacrificed, changes in body weights were measured at intervals of 3 days from the 6th day of the cancer cell injection in the CT26.CL25 cancer model and at intervals of 3 days from the 9th day in the B16F10-Ova cancer model (FIG. 8c). Length (L) and width (W) of the tumor tissues were measured, and the volume of the tumor tissues over time was calculated using the following formula (FIGS. 8D and 8E):
The volume of tumor tissue (V[mm^3])=(L[mm])[…] (W[mm])^2×0.5.

[4] = tumor-draining lymph nodes, cisplatin study
[5] = tumor-draining lymph nodes, doxorubicin 5 mg/kg, Y27632 10 mg/kg

C[C@@H](N)[C@H]1CC[C@H](C(=O)Nc2ccncc2)CC1 [Y27632]
ratio of CD8-positive dendritic cells ([1]; mouse, in vivo): no change | ratio of CD11b-positive dendritic cells ([1]; mouse, in vivo): no change | cross presentation (H-2Kb-Ova) of CD103 DC ([1]; tumor tissues): increased | ratio of CD103 DC ([1]; tumor tissues): increased | expression of CD40 and CD86 in dendritic cells ([1]; tumor-draining lymph node, schedule of Example 2-1): did not affect | cross presentation (H-2Kb-Ova) of CD103 DC ([1]; tumor-draining lymph nodes): increased | cross-presentation (H-2Kb-Ova) in CD8 DCs ([1]; tumor-draining lymph nodes): increased | maturation of CD103 DC (CD40) ([1]; tumor-draining lymph nodes): increased | ratio of CD103 DC ([1]; tumor-draining lymph nodes): increased | cross-presentation function (H-2Kb-Ova) of dendritic cells [1, 4]: increase | maturation of dendritic cells (CD40 and CD86) [1, 4]: no influence | antigenic cross presentation (H-2Kb-Ova) in the dendritic cells [1, 5]: did not significantly increase | dendritic cell maturation (expression of CD40 and CD86) [1, 5]: no effect | cross presentation (H-2Kb-Ova) of BMDCs co-cultured with B16F10-Ova cells [2]: increased the cross-presentation | body weight of the mice [3]: no significant change | volume of the tumors [3]: significantly decreased | weight of the tumors ([3]; day 22): significantly decreased
